We go through 7 compounds from ChEMBL document CHEMBL5528042, “Identification of Novel, Selective Ataxia-Telangiectasia Mutated Kinase Inhibitors with the Ability to Penetrate the Blood-Brain Barrier: The Discovery of AZD1390” (J Med Chem, 2024).

By efflux ratio is commonly meant the permeability from basolateral to apical divided by that in the opposite direction, in the common usage. What is called Papp A→B is the apparent permeability from the apical to the basolateral side of a cell layer. As a reminder, the bioavailability is the share of a dose that reaches the circulation, judged against a reference dose that is usually intravenous. The IC50 is the concentration that gives 50% inhibition. What is called Tmax is the time at which the peak concentration occurs. Usually solubility stands for the dissolved amount per volume that the medium holds. The term pKa denotes the negative logarithm of the acid dissociation constant. For orientation: logD means lipophilicity at a set pH, counting ionised and neutral species.

SMILES strings stand for the structures. ≈ marks a conversion by molar mass, not a printed value.

In one data set the test system is MDR1, BCRP. Nature of the data set: Efflux ratio of apparent permeability across basolateral to apical side over apical to basolateral side in dog MDCKII-MDR1 cells overexpressing BCRP at 1 uM incubated for 90 mins by LC-MS/MS analysis. Type of data set: ADME, cell-based, Canis lupus familiaris, MDCK-MDR1.
Settings: not given
As for `CC(C)n1c(=O)n(C)c2cnc3ccc(-c4ccc(OCCCN5CCCC5)nc4)cc3c21`, the efflux ratio at […], 1 µM was determined as 0.8.

Turning to `CC(C)n1c(=O)n(C)c2cnc3ccc(-c4ccc(OCCCN(C)C)nc4)cc3c21`, the efflux ratio at […], 1 µM is 2.1.

System in the next data set: not listed separately
Nature of the data set: Unbound brain to plasma drug concentration ratio in mouse at 50 mg/kg,po administration and measured after 2 hrs. Type of data set: ADME, organism-based. The conditions noted are these: read-out: K(p,uu,brain).
As for `Cn1c(=O)n(C2CCOCC2)c2c3cc(-c4cccnc4)ccc3ncc21`, the Kp uu at 2 h turned out to be 0.67.

System in the next data set: not listed separately
Nature of the data set: Apparent permeability across apical to basolateral side in dog MDCKII-MDR1 cells overexpressing BCRP at 1 uM incubated for 90 mins by LC-MS/MS analysis. The format is ADME, cell-based, Canis lupus familiaris, MDCK-MDR1.
Settings: not given
On to `CC(C)n1c(=O)n(C)c2cnc3ccc(-c4ccc(OCCCN5CCCC5)nc4)cc3c21`, for which the Papp A→B at […], 1 µM turned out to be 25 ×10⁻⁶ cm/s.

With `CC(C)n1c(=O)n(C)c2cnc3ccc(-c4ccc(OCCCN(C)C)nc4)cc3c21`, the Papp A→B at […], 1 µM is 21 ×10⁻⁶ cm/s.

Turning to `CC(C)n1c(=O)n(C)c2cnc3ccc(-c4ccc(OCCCN5CCC(F)CC5)nc4)cc3c21`, the Papp A→B at […], 1 µM came to 13 ×10⁻⁶ cm/s.

System in the next data set: not listed separately
Nature of the data set: Intrinsic clearance in rat hepatocyte assessed per 10^6 cells. The format is ADME, cell-based. Conditions: hepatocytes, read-out: CLH.
Consider `CC(C)n1c(=O)n(C)c2cnc3ccc(-c4ccc(OCCCN5CCCC5)nc4)cc3c21`, for which the hepatocyte CLint came out at 1.8 µL/min/1e6 cells.

Regarding `CC(C)n1c(=O)n(C)c2cnc3ccc(-c4ccc(OCCCN(C)C)nc4)cc3c21`, the hepatocyte CLint came out at 14 µL/min/1e6 cells.

On to `CC(C)n1c(=O)n(C)c2cnc3ccc(-c4ccc(OCCCN5CC[C@H](F)C5)nc4)cc3c21`, for which the hepatocyte CLint was found to be 20 µL/min/1e6 cells.

Regarding `CC(C)n1c(=O)n(C)c2cnc3ccc(-c4ccc(OCCCN5CCC(F)CC5)nc4)cc3c21`, the hepatocyte CLint is 29 µL/min/1e6 cells.

System in another data set: not listed separately
Nature of the data set: Volume of distribution at steady state in dog at 2 mg/kg,po or 1 mg/kg,iv administration measured for 24 hrs by LC-MS/MS analysis. The format is ADME, organism-based, Canis lupus familiaris. The conditions noted are these: in vivo.
`CN(C)CCCOc1ccc(-c2ccc3ncc4c(c3c2)n(C2CCOCC2)c(=O)n4C)cn1` gave a Vdss of 18 L/kg.

System in the next data set: not listed separately
Nature of the data set: Bioavailability in dog at 2 mg/kg,po or 1 mg/kg,iv administration measured for 24 hrs by LC-MS/MS analysis. The format is ADME, organism-based, Canis lupus familiaris. Conditions: in vivo.
`CN(C)CCCOc1ccc(-c2ccc3ncc4c(c3c2)n(C2CCOCC2)c(=O)n4C)cn1` registered a bioavailability of 54%.

System in the next data set: not listed separately
Nature of the data set: Intrinsic clearance in human hepatocyte assessed per 10^6 cells. The format is ADME, cell-based. Conditions: hepatocytes, read-out: CLH.
As for `CC(C)n1c(=O)n(C)c2cnc3ccc(-c4ccc(OCCCN5CCCC5)nc4)cc3c21`, the hepatocyte CLint was 2.6 µL/min/1e6 cells.

On to `CC(C)n1c(=O)n(C)c2cnc3ccc(-c4ccc(OCCCN(C)C)nc4)cc3c21`, for which the hepatocyte CLint worked out at 5.2 µL/min/1e6 cells.

For the compound `CC(C)n1c(=O)n(C)c2cnc3ccc(-c4ccc(OCCCN5CC[C@H](F)C5)nc4)cc3c21`, the hepatocyte CLint is 7.2 µL/min/1e6 cells.

As to `CC(C)n1c(=O)n(C)c2cnc3ccc(-c4ccc(OCCCN5CCC(F)CC5)nc4)cc3c21`, the hepatocyte CLint came out at 8.5 µL/min/1e6 cells.

System in the next data set: not listed separately
Nature of the data set: Intrinsic clearance in human liver microsomes. Type of data set: ADME, Microsome. Conditions: read-out: CLH.
Regarding `CC(C)n1c(=O)n(C)c2cnc3ccc(-c4ccc(OCCCN5CC[C@H](F)C5)nc4)cc3c21`, the microsomal CLint worked out at 65 µL/min/mg.

Take `CC(C)n1c(=O)n(C)c2cnc3ccc(-c4ccc(OCCCN5CCC(F)CC5)nc4)cc3c21`: the microsomal CLint is 100 µL/min/mg.

System in the next data set: not listed separately
Nature of the data set: Bioavailability in rat at 1 mg/kg,po or 0.5 mg/kg,iv administration measured for 24 hrs by LC-MS/MS analysis. The conditions noted are these: in vivo. The format is ADME, organism-based.
`CN(C)CCCOc1ccc(-c2ccc3ncc4c(c3c2)n(C2CCOCC2)c(=O)n4C)cn1` showed a bioavailability of 57%.

Another data set concerns the target Serine-protein kinase ATM (Homo sapiens, UniProt Q13315). Nature of the data set: Inhibition of ATM in human HT-29 cells incubated for 2 hrs by Alexa Fluor 488/Hoeschst staining based plate reader assay. Type of data set: cell-based.
Settings: not given
As for `CC(C)n1c(=O)n(C)c2cnc3ccc(-c4ccc(OCCCN5CCCC5)nc4)cc3c21`, half-maximal inhibition (IC50) was put at 0.000251 µM.

System in a further data set: not listed separately
Nature of the data set: Tmax in Cynomolgus monkey at iv administered as bolus injection measured at 4 to 90 mins by gamma counter analysis. The format is ADME, organism-based, Macaca fascicularis. Conditions: in vivo, time 4-90 min.
In the case of `CN(C)CCCOc1ccc(-c2ccc3ncc4c(c3c2)n(C2CCOCC2)c(=O)n4[11CH3])cn1`, the Tmax is on record as 20 min.

System in the next data set: not listed separately
Nature of the data set: Aqueous solubility of the compound in pH 7.4. Type of data set: physicochemical. Conditions: buffer.
The compound `CC(C)n1c(=O)n(C)c2cnc3ccc(-c4ccc(OCCCN5CCCC5)nc4)cc3c21` showed a solubility of 499 µM (≈ 222 µg/mL).

On to `CC(C)n1c(=O)n(C)c2cnc3ccc(-c4ccc(OCCCN(C)C)nc4)cc3c21`, for which the solubility stood at 480 µM (≈ 201 µg/mL).

`CC(C)n1c(=O)n(C)c2cnc3ccc(-c4ccc(OCCCN5CC[C@H](F)C5)nc4)cc3c21` registered a solubility of 43 µM (≈ 19.9 µg/mL).

As to `CC(C)n1c(=O)n(C)c2cnc3ccc(-c4ccc(OCCCN5CCC(F)CC5)nc4)cc3c21`, the solubility is 15 µM (≈ 7.16 µg/mL).

System in another data set: not listed separately
Nature of the data set: Dissociation constant, pKa of compound. The format is physicochemical.
Settings: not given
In the case of `CN(C)CCCOc1ccc(-c2ccc3ncc4c(c3c2)n(C2CCOCC2)c(=O)n4C)cn1`, the pKa worked out at 9.4.

In the case of `CC(C)n1c(=O)n(C)c2cnc3ccc(-c4ccc(OCCCN5CC[C@H](F)C5)nc4)cc3c21`, the pKa was 8.1.

The compound `CC(C)n1c(=O)n(C)c2cnc3ccc(-c4ccc(OCCCN5CCC(F)CC5)nc4)cc3c21` registered a pKa of 8.5.

System in another data set: not listed separately
Nature of the data set: Apparent permeability across apical to basolateral side in dog MDCKII-MDR1 cells overexpressing BCRP at 0.1 uM incubated for 90 mins by LC-MS/MS analysis. Type of data set: ADME, cell-based, Canis lupus familiaris, MDCK-MDR1.
Settings: not given
As for `CC(C)n1c(=O)n(C)c2cnc3ccc(-c4ccc(OCCCN5CCCC5)nc4)cc3c21`, the Papp A→B at […], 0.1 µM is 24 ×10⁻⁶ cm/s.

`CC(C)n1c(=O)n(C)c2cnc3ccc(-c4ccc(OCCCN(C)C)nc4)cc3c21`: the Papp A→B at […], 0.1 µM amounted to 13 ×10⁻⁶ cm/s.

As for `CC(C)n1c(=O)n(C)c2cnc3ccc(-c4ccc(OCCCN5CC[C@H](F)C5)nc4)cc3c21`, the Papp A→B at […], 0.1 µM stood at 19 ×10⁻⁶ cm/s.

In the case of `CC(C)n1c(=O)n(C)c2cnc3ccc(-c4ccc(OCCCN5CCC(F)CC5)nc4)cc3c21`, the Papp A→B at […], 0.1 µM amounted to 14 ×10⁻⁶ cm/s.

System in another data set: not listed separately
Nature of the data set: Volume of distribution at steady state in rat at 1 mg/kg,po or 0.5 mg/kg,iv administration measured for 24 hrs by LC-MS/MS analysis. Conditions: in vivo. Type of data set: ADME, organism-based.
As to `CN(C)CCCOc1ccc(-c2ccc3ncc4c(c3c2)n(C2CCOCC2)c(=O)n4C)cn1`, the Vdss was 4.3 L/kg.

The target of a further data set is Serine/threonine-protein kinase ATR (Homo sapiens, UniProt Q13535). Nature of the data set: Inhibition of ATR in human HT-29 cells incubated for 2 hrs by Alexa Fluor 488/Hoeschst staining based plate reader assay. Type of data set: cell-based.
Sequence of Serine/threonine-protein kinase ATR (Q13535 whole entry): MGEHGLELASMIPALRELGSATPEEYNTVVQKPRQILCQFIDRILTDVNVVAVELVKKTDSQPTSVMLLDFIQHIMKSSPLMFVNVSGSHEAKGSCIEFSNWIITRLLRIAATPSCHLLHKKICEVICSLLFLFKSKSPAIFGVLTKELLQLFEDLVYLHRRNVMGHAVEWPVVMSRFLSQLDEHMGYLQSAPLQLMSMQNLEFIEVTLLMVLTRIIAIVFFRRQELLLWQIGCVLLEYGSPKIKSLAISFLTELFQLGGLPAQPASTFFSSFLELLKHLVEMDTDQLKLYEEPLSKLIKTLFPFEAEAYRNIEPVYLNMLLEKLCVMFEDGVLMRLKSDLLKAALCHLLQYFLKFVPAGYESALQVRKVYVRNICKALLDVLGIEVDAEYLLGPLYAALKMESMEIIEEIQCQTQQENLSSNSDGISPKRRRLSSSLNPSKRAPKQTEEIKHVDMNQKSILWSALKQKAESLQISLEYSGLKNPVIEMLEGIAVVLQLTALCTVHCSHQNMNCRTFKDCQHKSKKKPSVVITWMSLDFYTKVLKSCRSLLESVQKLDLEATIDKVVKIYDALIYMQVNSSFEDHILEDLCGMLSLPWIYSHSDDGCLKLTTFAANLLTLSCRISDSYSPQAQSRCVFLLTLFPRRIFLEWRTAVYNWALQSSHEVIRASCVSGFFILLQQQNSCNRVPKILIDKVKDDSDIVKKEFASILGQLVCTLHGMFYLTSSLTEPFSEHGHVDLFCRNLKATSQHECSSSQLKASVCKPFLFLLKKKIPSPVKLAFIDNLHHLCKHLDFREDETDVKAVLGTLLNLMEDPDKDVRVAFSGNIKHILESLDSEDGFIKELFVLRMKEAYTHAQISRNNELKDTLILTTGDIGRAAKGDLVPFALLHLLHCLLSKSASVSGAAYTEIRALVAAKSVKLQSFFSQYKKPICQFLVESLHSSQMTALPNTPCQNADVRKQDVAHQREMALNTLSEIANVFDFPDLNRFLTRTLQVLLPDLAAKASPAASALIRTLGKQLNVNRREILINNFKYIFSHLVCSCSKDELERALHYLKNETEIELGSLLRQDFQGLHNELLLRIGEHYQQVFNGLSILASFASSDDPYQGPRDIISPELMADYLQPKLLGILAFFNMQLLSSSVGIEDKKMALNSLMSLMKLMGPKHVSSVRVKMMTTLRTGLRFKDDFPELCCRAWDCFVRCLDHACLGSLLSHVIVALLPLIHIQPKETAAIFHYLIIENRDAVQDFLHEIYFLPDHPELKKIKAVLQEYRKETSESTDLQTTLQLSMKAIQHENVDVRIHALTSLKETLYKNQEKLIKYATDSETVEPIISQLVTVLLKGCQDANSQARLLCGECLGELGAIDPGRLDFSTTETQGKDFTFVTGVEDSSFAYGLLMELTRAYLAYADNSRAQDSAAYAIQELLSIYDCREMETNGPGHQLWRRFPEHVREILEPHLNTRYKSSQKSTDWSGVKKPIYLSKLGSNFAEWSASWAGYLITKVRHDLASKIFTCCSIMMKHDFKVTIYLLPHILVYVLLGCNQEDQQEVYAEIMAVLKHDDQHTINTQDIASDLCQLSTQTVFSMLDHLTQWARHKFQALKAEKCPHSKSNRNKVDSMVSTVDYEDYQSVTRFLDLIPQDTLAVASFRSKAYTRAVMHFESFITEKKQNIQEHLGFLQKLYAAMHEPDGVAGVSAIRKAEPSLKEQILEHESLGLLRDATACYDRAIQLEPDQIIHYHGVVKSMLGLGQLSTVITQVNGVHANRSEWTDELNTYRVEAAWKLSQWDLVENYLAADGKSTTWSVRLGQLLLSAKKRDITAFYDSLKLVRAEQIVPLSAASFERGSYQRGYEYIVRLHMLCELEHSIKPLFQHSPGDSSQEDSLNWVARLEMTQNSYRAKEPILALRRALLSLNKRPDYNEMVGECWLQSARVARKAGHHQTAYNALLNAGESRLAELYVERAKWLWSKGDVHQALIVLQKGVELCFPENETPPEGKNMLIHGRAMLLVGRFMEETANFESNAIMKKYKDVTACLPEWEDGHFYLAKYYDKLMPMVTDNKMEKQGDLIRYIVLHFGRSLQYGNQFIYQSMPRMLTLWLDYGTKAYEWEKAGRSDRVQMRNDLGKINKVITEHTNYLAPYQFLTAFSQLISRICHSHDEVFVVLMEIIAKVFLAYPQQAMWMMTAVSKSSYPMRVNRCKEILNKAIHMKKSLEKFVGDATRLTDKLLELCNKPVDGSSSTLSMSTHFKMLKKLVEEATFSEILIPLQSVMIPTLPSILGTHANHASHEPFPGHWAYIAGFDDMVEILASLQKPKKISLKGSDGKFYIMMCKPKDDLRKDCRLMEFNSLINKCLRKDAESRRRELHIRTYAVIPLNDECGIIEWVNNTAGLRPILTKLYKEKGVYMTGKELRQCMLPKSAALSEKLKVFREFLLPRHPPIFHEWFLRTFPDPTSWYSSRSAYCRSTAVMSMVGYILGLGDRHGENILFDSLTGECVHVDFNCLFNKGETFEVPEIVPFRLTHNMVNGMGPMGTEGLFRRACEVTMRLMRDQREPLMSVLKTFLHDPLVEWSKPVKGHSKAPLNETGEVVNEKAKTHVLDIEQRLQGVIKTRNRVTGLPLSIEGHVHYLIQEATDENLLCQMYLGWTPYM
Settings: not given
With `CC(C)n1c(=O)n(C)c2cnc3ccc(-c4ccc(OCCCN5CCCC5)nc4)cc3c21`, the IC50 is above 31.6 µM.

In the case of `CC(C)n1c(=O)n(C)c2cnc3ccc(-c4ccc(OCCCN(C)C)nc4)cc3c21`, the IC50 was above 20 µM.

In turn, `CC(C)n1c(=O)n(C)c2cnc3ccc(-c4ccc(OCCCN5CC[C@H](F)C5)nc4)cc3c21` gave an IC50 above 20 µM.

Another data set has as its system MDR1, BCRP. Nature of the data set: Efflux ratio of apparent permeability across basolateral to apical side over apical to basolateral side in dog MDCKII-MDR1 cells overexpressing BCRP at 0.1 uM incubated for 90 mins by LC-MS/MS analysis. The format is ADME, cell-based, Canis lupus familiaris, MDCK-MDR1.
Settings: not given
With `CC(C)n1c(=O)n(C)c2cnc3ccc(-c4ccc(OCCCN5CCCC5)nc4)cc3c21`, the efflux ratio at […], 0.1 µM was determined as 2.6.

With `CC(C)n1c(=O)n(C)c2cnc3ccc(-c4ccc(OCCCN(C)C)nc4)cc3c21`, the efflux ratio at […], 0.1 µM was 6.3.

System in the next data set: not listed separately
Nature of the data set: Lipophilicity, logD of the compound at pH 7.4. Type of data set: physicochemical. Conditions: buffer.
For `Cn1c(=O)n(C2CCOCC2)c2c3cc(-c4cccnc4)ccc3ncc21`, the logD came to 2.2.

Regarding `CC(C)n1c(=O)n(C)c2cnc3ccc(-c4ccc(OCCCN5CCCC5)nc4)cc3c21`, the logD was determined as 2.

`CC(C)n1c(=O)n(C)c2cnc3ccc(-c4ccc(OCCCN(C)C)nc4)cc3c21` came in with a logD of 1.9.

With `CC(C)n1c(=O)n(C)c2cnc3ccc(-c4ccc(OCCCN5CC[C@H](F)C5)nc4)cc3c21`, the logD was 3.

With `CC(C)n1c(=O)n(C)c2cnc3ccc(-c4ccc(OCCCN5CCC(F)CC5)nc4)cc3c21`, the logD amounted to 3.3.
